The structures appear in SMILES notation. Activity calls are given as the source filed them. How the calls were made is not given here.

This series deals with rodent carcinogenicity bioassays, tumor incidence. Nature of the series: CCRIS carcinogenicity studies. In a few lines:
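Archive of carcinogenicity, mutagenicity, tumor promotion and tumor inhibition results drawn from journals, NCI reports and other sources, expert-reviewed; covers 1985-2011 and is no longer updated.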

In the case of `CCOP(=S)(OCC)Oc1ccc2c(C)c(Cl)c(=O)oc2c1`, the carcinogen call (Species: MOUSE, Strain/Sex: B6C3F1/FEMALE, Route: ORAL, Dose: 0, 10, 20 PPM IN DIET, Dose: 0, 10, 20 PPM IN DIET) was “inactive; negative”; the carcinogen call (Species: MOUSE, Strain/Sex: B6C3F1/MALE, Route: ORAL, Dose: 0, 10, 20 PPM IN DIET, Dose: 0, 10, 20 PPM IN DIET) was “inactive; negative”; the carcinogen call (Species: RAT, Strain/Sex: F344/FEMALE, Route: ORAL, Dose: 0, 10, 20 PPM IN DIET, Dose: 0, 10, 20 PPM IN DIET) was “inactive; negative”; the carcinogen call (Species: RAT, Strain/Sex: F344/MALE, Route: ORAL, Dose: 0, 10, 20 PPM IN DIET, Dose: 0, 10, 20 PPM IN DIET) was “inactive; negative”; the carcinogen call (Species: Rat, Strain/Sex: Wistar/Female (50/group), Route: Oral, Dose: 0 (1% peanut oil), 1, 5, 25 ppm in diet for 24 mo, test material purity 99.2%, Dose: 0 (1% peanut oil), 1, 5, 25 ppm in diet for 24 mo, test material purity 99.2%) was “inactive; negative. according to dpr evaluator; original data not presented. cholinesteras”; the carcinogen call (Species: Rat, Strain/Sex: Wistar/Male (50/group), Route: Oral, Dose: 0 (1% peanut oil), 1, 5, 25 ppm in diet for 24 mo, test material purity 99.2%, Dose: 0 (1% peanut oil), 1, 5, 25 ppm in diet for 24 mo, test material purity 99.2%) is “inactive; negative. according to dpr evaluator; original data not presented. cholinesteras”.

As for `CCCC(OC(C)=O)N(CCCC(=O)OC)N=O` (stereo not drawn), the carcinogen call (Species: RAT, Strain/Sex: F344/MALE,FEMALE, Route: SUBCUTANEOUS, Dose: 38 UMOL/KG IN OLIVE OIL 1/WK FOR 10 WK, Tumor Site: Type of Lesion: INJECTION SITE: MALIGNANT FIBROUS HISTIOCYTOMA) is “active; positive”.

Regarding `C=Cc1ccc(C)cc1`, the carcinogen call by setting is: (Species: MOUSE, Strain/Sex: SWISS/FEMALE, Route: INTRAGASTRIC, Dose: 0, 10, 50, 250 MG/KG IN OLIVE OIL 1/D, 5 D/WK FOR 78 WK (STUDY DURATION: 83 WK), Dose: 0, 10, 50, 250 MG/KG IN OLIVE OIL 1/D, 5 D/WK FOR 78 WK (STUDY DURATION: 83 WK)) “inactive; negative”; (Species: MOUSE, Strain/Sex: SWISS/MALE, Route: INTRAGASTRIC, Dose: 0, 10, 50, 250 MG/KG IN OLIVE OIL 1/D, 5 D/WK FOR 78 WK (STUDY DURATION: 83 WK), Dose: 0, 10, 50, 250 MG/KG IN OLIVE OIL 1/D, 5 D/WK FOR 78 WK (STUDY DURATION: 83 WK)) “inactive; negative”; (Species: RAT, Strain/Sex: SPRAGUE-DAWLEY/FEMALE, Route: INTRAGASTRIC, Dose: 0, 10, 50, 250, 500 MG/KG IN OLIVE OIL 1/D, 5 D/WK FOR 104 WK (STUDY DURATION: 123 WK), Dose: 0, 10, 50, 250, 500 MG/KG IN OLIVE OIL 1/D, 5 D/WK FOR 104 WK (STUDY DURATION: 123 WK)) “inactive; negative”; (Species: RAT, Strain/Sex: SPRAGUE-DAWLEY/MALE, Route: INTRAGASTRIC, Dose: 0, 10, 50, 250, 500 MG/KG IN OLIVE OIL 1/D, 5 D/WK FOR 104 WK (STUDY DURATION: 123 WK), Dose: 0, 10, 50, 250, 500 MG/KG IN OLIVE OIL 1/D, 5 D/WK FOR 104 WK (STUDY DURATION: 123 WK)) “inactive; negative”.

Take `c1ccc2c(c1)ccc1c3ccccc3ccc21`: the carcinogen call was “active; positive” (Species: MOUSE, Route: DERMAL, Tumor Site: Type of Lesion: INTEGUMENTARY SYSTEM (SKIN)); “active; positive” (Species: MOUSE, Strain/Sex: ICR/FEMALE, Route: DERMAL, Dose: 0, 0.1 MG, 3/WK FOR 17 MO, Tumor Site: Type of Lesion: INTEGUMENTARY SYSTEM (SKIN): CARCINOMA); “inactive; negative” (Species: MOUSE, Strain/Sex: ICR/FEMALE, Route: INTRAPERITONEAL, Dose: 0, 6.3 UG TOTAL DOSE (0.9 UG/5 µL, 1.8 UG/10 µL, 3.6 UG/20 µL DMSO ON DAYS 1, 8 AND 15), 210 UG TOTAL DOSE (30 UG/5 µL,, Dose: 0, 6.3 UG TOTAL DOSE (0.9 UG/5 µL, 1.8 UG/10 µL, 3.6 UG/20 µL DMSO ON DAYS 1, 8 AND 15), 210 UG TOTAL DOSE (30 UG/5 µL); “inactive; negative” (Species: MOUSE, Strain/Sex: ICR/MALE, Route: INTRAPERITONEAL, Dose: 0, 6.3 UG TOTAL DOSE (0.9 UG/5 µL, 1.8 UG/10 µL, 3.6 UG/20 µL DMSO ON DAYS 1, 8 AND 15), 210 UG TOTAL DOSE (30 UG/5 µL,, Dose: 0, 6.3 UG TOTAL DOSE (0.9 UG/5 µL, 1.8 UG/10 µL, 3.6 UG/20 µL DMSO ON DAYS 1, 8 AND 15), 210 UG TOTAL DOSE (30 UG/5 µL); “active; positive” (Species: RAT, Strain/Sex: OSBORNE-MENDEL/FEMALE, Route: INTRAPULMONARY IMPLANT, Dose: 0, 1, 3 MG IN BEESWAX AND TRIOCTANOIN IMPLANTED IN LUNG (STUDY DURATION: 141 WK), Dose: 0, 1, 3 MG IN BEESWAX AND TRIOCTANOIN IMPLANTED IN LUNG (STUDY DURATION: 141 WK), Tumor Site: Type of Lesion: LUNG: CARCINOMA).

As to `O=C1c2cccc(O)c2C(=O)c2c(O)cccc21`, the carcinogen call is “active; positive” (Species: MOUSE, Strain/Sex: C3H/HEN/MALE, Route: ORAL, Dose: 0, 0.2% IN DIET FOR DURATION OF STUDY (STUDY DURATION: 540 D), Tumor Site: Type of Lesion: LIVER: HEPATOCELLULAR CARCINOMA) and “active; positive” (Species: RAT, Strain/Sex: ACI/MALE, Route: ORAL, Dose: 0, 1% IN DIET FOR DURATION OF STUDY (STUDY DURATION: 16 MO), Tumor Site: Type of Lesion: INTESTINE: ADENOMA OR CARCINOMA).

Turning to `CNC(=O)CSP(=S)(OC)OC`, the carcinogen call is “inactive; negative” (Species: MOUSE, Strain/Sex: B6C3F1/FEMALE, Route: ORAL, Dose: 0, 250, 500 PPM IN DIET, Dose: 0, 250, 500 PPM IN DIET); “inactive; negative” (Species: MOUSE, Strain/Sex: B6C3F1/MALE, Route: ORAL, Dose: 0, 250, 500 PPM IN DIET, Dose: 0, 250, 500 PPM IN DIET); “inactive; negative” (Species: RAT, Strain/Sex: OSBORNE-MENDEL/FEMALE, Route: ORAL, Dose: 0, 192, 384 PPM IN DIET, TWA, Dose: 0, 192, 384 PPM IN DIET, TWA); “inactive; negative” (Species: RAT, Strain/Sex: OSBORNE-MENDEL/MALE, Route: ORAL, Dose: 0, 155, 310 PPM IN DIET, TWA); “inactive; negative” (Species: RAT, Strain/Sex: WISTAR/FEMALE, Route: ORAL, Dose: 0, 2, 20, 200 PPM IN DIET FOR 2 YR (STUDY DURATION: 2 YR), Dose: 0, 2, 20, 200 PPM IN DIET FOR 2 YR (STUDY DURATION: 2 YR)); “inactive; negative” (Species: RAT, Strain/Sex: WISTAR/MALE, Route: ORAL, Dose: 0, 2, 20, 200 PPM IN DIET FOR 2 YR (STUDY DURATION 2 YR), Dose: 0, 2, 20, 200 PPM IN DIET FOR 2 YR (STUDY DURATION 2 YR)).

As to `Cc1c(O)cc2c(c1C)OC(C)(CCCC(C)CCCC(C)CCCC(C)C)CC2` (stereo not drawn), the carcinogen call (Species: MOUSE, Strain/Sex: 6HF1/MALE, Route: ORAL, Dose: 0, 5% IN BASAL DIET FOR 104 WK (STUDY DURATION: 104 WK), Tumor Site: Type of Lesion: LIVER: TUMOR) was “active; positive”.

With `O=c1ccc(=O)[nH][nH]1`, the carcinogen call by setting is: (Species: MOUSE, Strain/Sex: ICR/HA SWISS/FEMALE, Route: SUBCUTANEOUS, Dose: 0, 0.5 MG IN 0.1 ML WATER ON D 1 AND 7 OF AGE THEN 0, 1 MG IN 0.2 ML ON D 14 AND 21 FOR A TOTAL DOSE OF 0, 3 MG (STUDY D, Dose: 0, 0.5 MG IN 0.1 ML WATER ON D 1 AND 7 OF AGE THEN 0, 1 MG IN 0.2 ML ON D 14 AND 21 FOR A TOTAL DOSE OF 0, 3 MG (STUDY D) “inactive; negative”; (Species: MOUSE, Strain/Sex: ICR/HA SWISS/FEMALE, Route: SUBCUTANEOUS, Dose: 0, 5 MG IN 0.1 ML TRICAPRYLIN SUSPENSION ON D 1 OF AGE THEN 0, 10 MG IN 0.1 ML ON D 7, 0, 20 MG IN 0.2 ML ON D 14 AND 21, Dose: 0, 5 MG IN 0.1 ML TRICAPRYLIN SUSPENSION ON D 1 OF AGE THEN 0, 10 MG IN 0.1 ML ON D 7, 0, 20 MG IN 0.2 ML ON D 14 AND 21) “inactive; negative”; (Species: MOUSE, Strain/Sex: ICR/HA SWISS/MALE, Route: SUBCUTANEOUS, Dose: 0, 5 MG IN 0.1 ML TRICAPRYLIN SUSPENSION ON D 1 OF AGE THEN 0, 10 MG IN 0.1 ML ON D 7, 0, 20 MG IN 0.2 ML ON D 14 AND 21, Dose: 0, 5 MG IN 0.1 ML TRICAPRYLIN SUSPENSION ON D 1 OF AGE THEN 0, 10 MG IN 0.1 ML ON D 7, 0, 20 MG IN 0.2 ML ON D 14 AND 21, Tumor Site: Type of Lesion: LIVER: HEPATOMA) “active; positive”.

(Values after PubChem BioAssay AID1259411 (Chemical Carcinogenesis Research Information System (CCRIS), 2018).)
